Measurements from article PMC5659129, “Determinants of the Inhibition of DprE1 and CYP2C9 by Antitubercular Thiophenes” (Angewandte Chemie (International Ed. in English), 2017).
Values after ≈ are worked out from the molar mass of the structure shown.

Tested on: Mtb Y314C mutant strain
Type: cell-based, Mycobacterium tuberculosis

Row | Structure (SMILES) | MIC Y314C
1 | CCOC(=O)NC(=O)c1ccsc1NC(=O)c1nc2ccccc2s1 [TCA1] | 5.4 ± 0.32 µM (≈ 2.03 µg/mL)
2 | CCOC(=O)NC(=O)c1ccsc1NC(=O)c1nc2cnccc2s1 [TCA007] | 2.4 ± 0.34 µM (≈ 0.903 µg/mL)
3 | O=C(Nc1sccc1C(=O)Nc1ncccn1)c1nc2cnccc2s1 [TCA020] | 17 ± 1.1 µM (≈ 6.5 µg/mL)
4 | CCOC(=O)NC(=O)c1cc(F)sc1NC(=O)c1nc2ccccc2s1 [TCA481] | 1.4 ± 0.086 µM (≈ 0.551 µg/mL)
5 | Cc1ccnc(NC(=O)c2ccsc2NC(=O)c2nc3cnccc3s2)n1 [TCA787] | 14 ± 1.4 µM (≈ 5.55 µg/mL)
